ChEMBL document CHEMBL5346971, “Discovery of the First Irreversible HDAC6 Isoform Selective Inhibitor with Potent Anti-Multiple Myeloma Activity” (J Med Chem, 2023)
pIC50: −log10 of the molar value. Activity calls are given as the source filed them. The calls are words filed in the database; no cut-off is given here.

How the values were obtained:
[1] = target: T1, Protein deacetylase HDAC6 (Homo sapiens) (UniProt Q9UBN7); assay: Inhibition of HDAC6 in human A549 cells assessed as acetyl alpha-tubulin level at 2 uM incubated for 5 hrs by western blot analysis relative to control; type: cell-based
T1 sequence (whole entry): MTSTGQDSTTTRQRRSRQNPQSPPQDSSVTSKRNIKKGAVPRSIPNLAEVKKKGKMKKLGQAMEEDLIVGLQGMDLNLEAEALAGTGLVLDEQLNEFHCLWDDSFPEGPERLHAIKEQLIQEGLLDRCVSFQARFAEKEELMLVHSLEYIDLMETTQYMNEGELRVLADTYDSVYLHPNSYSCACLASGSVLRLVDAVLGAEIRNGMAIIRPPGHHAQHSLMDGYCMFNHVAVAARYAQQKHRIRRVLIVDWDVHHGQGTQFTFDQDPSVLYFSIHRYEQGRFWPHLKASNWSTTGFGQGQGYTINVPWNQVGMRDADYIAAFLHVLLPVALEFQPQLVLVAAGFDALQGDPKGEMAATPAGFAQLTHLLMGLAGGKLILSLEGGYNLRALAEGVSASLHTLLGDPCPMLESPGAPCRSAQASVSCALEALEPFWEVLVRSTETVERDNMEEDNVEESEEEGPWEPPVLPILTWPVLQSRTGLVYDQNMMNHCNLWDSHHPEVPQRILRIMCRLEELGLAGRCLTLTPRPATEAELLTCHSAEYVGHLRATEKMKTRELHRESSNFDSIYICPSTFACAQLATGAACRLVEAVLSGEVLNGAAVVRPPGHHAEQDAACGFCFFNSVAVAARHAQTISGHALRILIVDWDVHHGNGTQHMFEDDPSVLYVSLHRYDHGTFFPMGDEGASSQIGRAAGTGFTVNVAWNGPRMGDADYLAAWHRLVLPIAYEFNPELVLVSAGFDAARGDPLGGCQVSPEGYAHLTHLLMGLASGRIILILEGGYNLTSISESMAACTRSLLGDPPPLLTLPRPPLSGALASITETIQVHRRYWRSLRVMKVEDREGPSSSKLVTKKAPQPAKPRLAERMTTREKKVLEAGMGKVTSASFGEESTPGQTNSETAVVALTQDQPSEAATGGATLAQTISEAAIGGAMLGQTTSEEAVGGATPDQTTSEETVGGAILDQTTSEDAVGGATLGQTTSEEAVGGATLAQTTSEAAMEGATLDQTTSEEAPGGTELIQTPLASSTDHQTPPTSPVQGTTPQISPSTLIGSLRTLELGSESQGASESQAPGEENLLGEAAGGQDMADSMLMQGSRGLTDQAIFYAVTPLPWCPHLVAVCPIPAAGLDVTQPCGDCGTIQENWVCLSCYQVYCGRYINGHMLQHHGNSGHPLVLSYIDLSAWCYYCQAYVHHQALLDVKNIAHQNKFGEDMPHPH

[2] = target: T1, Protein deacetylase HDAC6 (Homo sapiens); assay: Inhibition of HDAC6 in human A549 cells assessed as acetyl alpha-tubulin level at 10 uM incubated for 5 hrs by western blot analysis relative to control; type: cell-based
[3] = target: T2, Class 1 histone deacetylase (Homo sapiens) (UniProt Q13547+O15379+Q92769+Q9BY41); assay: Inhibition of class 1 HDAC in human A549 cells assessed as acetyl histone H4 level at 10 uM incubated for 5 hrs by western blot analysis relative to control; type: cell-based
[4] = target: T2, Class 1 histone deacetylase (Homo sapiens); assay: Inhibition of class 1 HDAC in human A549 cells assessed as acetyl histone H4 level at 2 uM incubated for 5 hrs by western blot analysis relative to control; type: cell-based
[5] = target: T3, Protein deacetylase HDAC6 (Homo sapiens, UniProt Q9UBN7); assay: Inhibition of N-terminal GST-tagged human full length recombinant HDAC6 (1 to 1215 residues) expressed in Sf9 cells using Boc-Lys(acetyI)-AMC as substrate preincubated with enzyme for 1 hr followed by substrate addition and measured after 30 mins by fluorescence based analysis
T3 sequence (Q9UBN7 whole entry): T1 sequence (whole entry)

Homo sapiens = species: Homo sapiens; assay: Selectivity index, ratio of IC50 for inhibition of C-terminal FLAG-tagged human full length recombinant HDAC2 (1 to 488 residues) expressed in Sf9 cells to IC50 for inhibition of N-terminal GST-tagged human full length recombinant HDAC6 (1 to 1215 residues) expressed in Sf9 cells
Histone deacetylase 2 = Histone deacetylase 2 (Homo sapiens, UniProt Q92769); assay: Inhibition of C-terminal FLAG-tagged human full length recombinant HDAC2 (1 to 488 residues) expressed in Sf9 cells using Boc-Lys(acetyI)-AMC as substrate preincubated with enzyme for 1 hr followed by substrate addition and measured after 30 mins by fluorescence based analysis
MM1.S = assay: Antiproliferative activity against human MM1.S cells assessed as inhibition of cell proliferation incubated for 48 hrs by CCK8 assay; type: functional, cell-based
U-266 = assay: Antiproliferative activity against human U-266 cells assessed as inhibition of cell proliferation incubated for 48 hrs by CCK8 assay; type: functional, cell-based; conditions: U-266, 48 h
[6] = Cytotoxicity against human L02 cells assessed as inhibition of cell proliferation incubated for 48 hrs by CCK8 assay; type: toxicity, cell-based
RPMI-8226 = assay: Antiproliferative activity against human RPMI-8226 cells assessed as inhibition of cell proliferation incubated for 48 hrs by CCK8 assay; type: functional, cell-based; conditions: RPMI-8226, 48 h
[7] = target: T2, Class 1 histone deacetylase (Homo sapiens); assay: Irreversible inhibition of class 1 HDAC in human A549 cells assessed as acetyl histone H3 level at 2 uM incubated for 5 hrs followed by drug wash-out and measured immediately after drug wash-out by western blot analysis; type: cell-based
[8] = target: T1, Protein deacetylase HDAC6 (Homo sapiens); assay: Irreversible inhibition of HDAC6 in human A549 cells assessed as acetyl alpha-tubulin level at 2 uM incubated for 5 hrs followed by drug wash-out for 24 hrs by western blot analysis relative to control; type: cell-based
[9] = target: T2, Class 1 histone deacetylase (Homo sapiens); assay: Irreversible inhibition of class 1 HDAC in human A549 cells assessed as acetyl histone H3 level at 2 uM incubated for 5 hrs followed by drug wash-out for 1 hr by western blot analysis; type: cell-based
[10] = target: T2, Class 1 histone deacetylase (Homo sapiens); assay: Irreversible inhibition of class 1 HDAC in human A549 cells assessed as acetyl histone H3 level at 2 uM incubated for 5 hrs followed by drug wash-out for 24 hrs by western blot analysis; type: cell-based
[11] = target: T1, Protein deacetylase HDAC6 (Homo sapiens); assay: Irreversible inhibition of HDAC6 in human A549 cells assessed as acetyl alpha-tubulin level at 2 uM incubated for 5 hrs followed by drug wash-out and measured immediately after drug wash-out by western blot analysis relative to control; type: cell-based
[12] = target: T2, Class 1 histone deacetylase (Homo sapiens); assay: Irreversible inhibition of class 1 HDAC in human A549 cells assessed as acetyl histone H4 level at 2 uM incubated for 5 hrs followed by drug wash-out and measured immediately after drug wash-out by western blot analysis; type: cell-based
[13] = target: T2, Class 1 histone deacetylase (Homo sapiens); assay: Irreversible inhibition of class 1 HDAC in human A549 cells assessed as acetyl histone H3 level at 2 uM incubated for 5 hrs followed by drug wash-out for 6 hrs by western blot analysis; type: cell-based
[14] = Effect on HDAC6 protein expression in human A549 cells assessed as change in HDAC6 protein expression at 2 uM incubated for 5 hrs followed by drug wash-out and measured following drug wash-out by western blot analysis relative to control; type: functional
[15] = target: T1, Protein deacetylase HDAC6 (Homo sapiens); assay: Irreversible inhibition of HDAC6 in human A549 cells assessed as acetyl alpha-tubulin level at 2 uM incubated for 5 hrs followed by drug wash-out for 6 hrs by western blot analysis relative to control; type: cell-based
[16] = Effect on HDAC6 protein expression in human A549 cells assessed as change in HDAC6 protein expression at 2 uM incubated for 5 hrs followed by drug wash-out for 24 hrs by western blot analysis relative to control; type: functional
[17] = target: T2, Class 1 histone deacetylase (Homo sapiens); assay: Irreversible inhibition of class 1 HDAC in human A549 cells assessed as acetyl histone H4 level at 2 uM incubated for 5 hrs followed by drug wash-out for 24 hrs by western blot analysis; type: cell-based
[18] = target: T2, Class 1 histone deacetylase (Homo sapiens); assay: Irreversible inhibition of class 1 HDAC in human A549 cells assessed as acetyl histone H4 level at 2 uM incubated for 5 hrs followed by drug wash-out for 6 hrs by western blot analysis; type: cell-based
[19] = target: T2, Class 1 histone deacetylase (Homo sapiens); assay: Irreversible inhibition of class 1 HDAC in human A549 cells assessed as acetyl histone H4 level at 2 uM incubated for 5 hrs followed by drug wash-out for 1 hr by western blot analysis; type: cell-based
[20] = target: T1, Protein deacetylase HDAC6 (Homo sapiens); assay: Irreversible inhibition of HDAC6 in human A549 cells assessed as acetyl alpha-tubulin level at 2 uM incubated for 5 hrs followed by drug wash-out for 1 hr by western blot analysis relative to control; type: cell-based
[21] = Effect on HDAC6 protein expression in human A549 cells assessed as change in HDAC6 protein expression at 2 uM incubated for 5 hrs followed by drug wash-out for 6 hrs by western blot analysis relative to control; type: functional
[22] = Effect on HDAC6 protein expression in human A549 cells assessed as change in HDAC6 protein expression at 2 uM incubated for 5 hrs followed by drug wash-out for 1 hr by western blot analysis relative to control; type: functional
[23] = target: T1, Protein deacetylase HDAC6 (Homo sapiens); conditions: A549, dose 80.0 nM, time 5.0 hrs

T2 sequence (O15379 whole entry, looked up): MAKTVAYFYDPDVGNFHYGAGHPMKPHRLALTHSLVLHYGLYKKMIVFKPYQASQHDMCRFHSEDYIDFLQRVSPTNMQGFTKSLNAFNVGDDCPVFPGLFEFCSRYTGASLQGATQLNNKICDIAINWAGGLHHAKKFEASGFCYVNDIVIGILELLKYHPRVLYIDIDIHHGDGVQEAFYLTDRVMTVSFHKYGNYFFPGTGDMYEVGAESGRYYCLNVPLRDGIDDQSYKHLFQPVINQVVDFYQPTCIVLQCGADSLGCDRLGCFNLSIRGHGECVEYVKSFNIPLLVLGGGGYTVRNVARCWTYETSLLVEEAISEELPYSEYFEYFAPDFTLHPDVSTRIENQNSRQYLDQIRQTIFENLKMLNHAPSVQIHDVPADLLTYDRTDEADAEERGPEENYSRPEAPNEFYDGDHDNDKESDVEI
T2 sequence (Q13547 whole entry, looked up): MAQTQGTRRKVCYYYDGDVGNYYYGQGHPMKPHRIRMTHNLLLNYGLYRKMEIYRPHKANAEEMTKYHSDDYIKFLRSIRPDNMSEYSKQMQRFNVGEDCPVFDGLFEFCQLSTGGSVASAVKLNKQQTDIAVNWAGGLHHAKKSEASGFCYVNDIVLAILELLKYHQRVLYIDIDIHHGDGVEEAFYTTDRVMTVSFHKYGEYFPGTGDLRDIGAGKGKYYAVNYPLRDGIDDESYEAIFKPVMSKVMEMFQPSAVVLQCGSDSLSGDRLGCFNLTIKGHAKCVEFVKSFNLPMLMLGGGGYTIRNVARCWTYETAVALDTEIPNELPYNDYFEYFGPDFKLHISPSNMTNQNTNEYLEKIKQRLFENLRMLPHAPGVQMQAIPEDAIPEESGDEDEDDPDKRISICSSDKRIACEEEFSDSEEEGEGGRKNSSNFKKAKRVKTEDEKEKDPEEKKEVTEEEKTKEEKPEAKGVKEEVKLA
T2 sequence (Q92769 whole entry, looked up): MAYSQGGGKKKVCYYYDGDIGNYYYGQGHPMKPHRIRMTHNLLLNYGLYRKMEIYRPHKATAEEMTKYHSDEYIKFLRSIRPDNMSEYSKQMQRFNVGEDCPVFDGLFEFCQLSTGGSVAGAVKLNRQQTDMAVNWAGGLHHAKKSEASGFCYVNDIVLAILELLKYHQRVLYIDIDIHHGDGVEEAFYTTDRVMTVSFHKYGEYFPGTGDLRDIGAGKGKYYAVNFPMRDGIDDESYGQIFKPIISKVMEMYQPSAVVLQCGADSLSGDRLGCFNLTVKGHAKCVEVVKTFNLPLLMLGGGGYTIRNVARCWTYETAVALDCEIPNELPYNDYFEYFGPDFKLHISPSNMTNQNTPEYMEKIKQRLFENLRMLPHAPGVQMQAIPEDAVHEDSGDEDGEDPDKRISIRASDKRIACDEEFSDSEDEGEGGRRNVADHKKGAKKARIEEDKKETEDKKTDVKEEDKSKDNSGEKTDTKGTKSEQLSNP
T2 sequence (Q9BY41 whole entry, looked up): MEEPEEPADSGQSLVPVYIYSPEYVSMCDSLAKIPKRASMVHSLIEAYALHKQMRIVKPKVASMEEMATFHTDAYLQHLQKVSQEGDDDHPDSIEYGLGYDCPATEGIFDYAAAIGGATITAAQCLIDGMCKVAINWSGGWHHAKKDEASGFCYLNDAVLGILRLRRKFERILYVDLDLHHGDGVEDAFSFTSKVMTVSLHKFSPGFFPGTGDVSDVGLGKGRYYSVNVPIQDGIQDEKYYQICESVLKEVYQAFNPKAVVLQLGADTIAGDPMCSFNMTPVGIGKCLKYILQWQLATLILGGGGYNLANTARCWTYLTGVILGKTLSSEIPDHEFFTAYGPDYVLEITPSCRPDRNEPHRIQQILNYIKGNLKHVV
Chain of Histone deacetylase 2 (Q92769 whole entry, the tested form may be a part): as the sequence (Q92769 whole entry, looked up) above

Row | fold change (FC) [1] | fold change (FC) [4] | pIC50 [5] | pIC50 (Histone deacetylase 2) | pIC50 (MM1.S) | pIC50 (RPMI-8226) | SMILES | Ratio IC50 (Homo sapiens) | pIC50 (U-266) | IC50 at 48 h [6] | further results
1 | 1.3 | 1.3 | – | – | – | – | O=S(=O)(c1ccccc1)c1c(OCCCCCCO)no[n+]1[O-] | – | – | – | fold change (FC) [2]: 1.2; fold change (FC) [3]: 0.8
2 | – | – | – | – | 5.19 | 5.21 | O=C(NO)c1ccc(COc2nonc2S(=O)(=O)c2ccccc2)cc1 | – | < 5.00 | > 30000 nM | –
3 | 0.8 | 0.5 | 4.98 | 5.18 | – | – | O=C(/C=C/COc1no[n+]([O-])c1S(=O)(=O)c1ccccc1)NO | 0.6 | – | – | –
4 | 1.3 | 0.4 | 5.57 | 5.28 | – | – | COc1cc(C(=O)NO)ccc1Oc1no[n+]([O-])c1S(=O)(=O)c1ccccc1 | 2 | – | – | –

The next lines start with the molecule.

Row | SMILES | fold change (FC) [1] | fold change (FC) [4] | pIC50 [5] | pIC50 (Histone deacetylase 2) | pIC50 (MM1.S) | pIC50 (RPMI-8226) | Ratio IC50 (Homo sapiens) | pIC50 (U-266) | IC50 at 48 h [6] | further results
5 | O=C(NO)c1cccc(Oc2no[n+]([O-])c2S(=O)(=O)c2ccccc2)c1 | 1.1 | 0.2 | 4.41 | 5.09 | – | – | 0.2 | – | – | –
6 | O=C(NO)c1ccc(Oc2no[n+]([O-])c2S(=O)(=O)c2ccccc2)cc1 | 2.1 | 0.5 | 6.80 | 5.47 | 5.96 | 5.92 | 21.3 | 5.89 | 14300 nM | fold change (FC) [7]: 1.1; fold change (FC) [8]: 2.2; fold change (FC) [9]: 1.2; fold change (FC) [10]: 0.7; fold change (FC) [11]: 3.9; fold change (FC) [12]: 1; fold change (FC) [13]: 0.9; fold change (FC) [14]: 0.9; fold change (FC) [15]: 3.7; fold change (FC) [16]: 1.2; fold change (FC) [17]: 0.6; fold change (FC) [18]: 0.9; fold change (FC) [19]: 1.6; fold change (FC) [20]: 4.4; fold change (FC) [21]: 1.1; fold change (FC) [22]: 1.1
7 | O=C(CCCCCOc1no[n+]([O-])c1S(=O)(=O)c1ccccc1)NO | 3.8 | 2.1 | 7.33 | – | 6.37 | 6.32 | – | 6.16 | 8700 nM | fold change (FC) [8]: 2.5; fold change (FC) [11]: 2; fold change (FC) [12]: 4.4; fold change (FC) [17]: 1.8; fold change (FC) [19]: 4.7; fold change (FC) [20]: 2.2
8 | O=S(=O)(c1ccccc1)c1c(OCc2ccc(CO)cc2)no[n+]1[O-] | – | – | – | – | 6.04 | 5.96 | – | 5.82 | 8400 nM | –
9 | CN1CCc2c(c3ccccc3n2Cc2ccc(C(=O)NO)cc2)C1 | – | – | – | – | – | – | – | – | – | inhibition [23]: Active
10 | O=C(/C=C/c1ccc(Oc2no[n+]([O-])c2S(=O)(=O)c2ccccc2)cc1)NO | 2.7 | 1.7 | 6.51 | 6.00 | – | – | 3.2 | – | – | –
